Assay [1] has as its target T1, Poly [ADP-ribose] polymerase tankyrase-1 (Homo sapiens) (UniProt O95271).
T1 sequence (whole entry): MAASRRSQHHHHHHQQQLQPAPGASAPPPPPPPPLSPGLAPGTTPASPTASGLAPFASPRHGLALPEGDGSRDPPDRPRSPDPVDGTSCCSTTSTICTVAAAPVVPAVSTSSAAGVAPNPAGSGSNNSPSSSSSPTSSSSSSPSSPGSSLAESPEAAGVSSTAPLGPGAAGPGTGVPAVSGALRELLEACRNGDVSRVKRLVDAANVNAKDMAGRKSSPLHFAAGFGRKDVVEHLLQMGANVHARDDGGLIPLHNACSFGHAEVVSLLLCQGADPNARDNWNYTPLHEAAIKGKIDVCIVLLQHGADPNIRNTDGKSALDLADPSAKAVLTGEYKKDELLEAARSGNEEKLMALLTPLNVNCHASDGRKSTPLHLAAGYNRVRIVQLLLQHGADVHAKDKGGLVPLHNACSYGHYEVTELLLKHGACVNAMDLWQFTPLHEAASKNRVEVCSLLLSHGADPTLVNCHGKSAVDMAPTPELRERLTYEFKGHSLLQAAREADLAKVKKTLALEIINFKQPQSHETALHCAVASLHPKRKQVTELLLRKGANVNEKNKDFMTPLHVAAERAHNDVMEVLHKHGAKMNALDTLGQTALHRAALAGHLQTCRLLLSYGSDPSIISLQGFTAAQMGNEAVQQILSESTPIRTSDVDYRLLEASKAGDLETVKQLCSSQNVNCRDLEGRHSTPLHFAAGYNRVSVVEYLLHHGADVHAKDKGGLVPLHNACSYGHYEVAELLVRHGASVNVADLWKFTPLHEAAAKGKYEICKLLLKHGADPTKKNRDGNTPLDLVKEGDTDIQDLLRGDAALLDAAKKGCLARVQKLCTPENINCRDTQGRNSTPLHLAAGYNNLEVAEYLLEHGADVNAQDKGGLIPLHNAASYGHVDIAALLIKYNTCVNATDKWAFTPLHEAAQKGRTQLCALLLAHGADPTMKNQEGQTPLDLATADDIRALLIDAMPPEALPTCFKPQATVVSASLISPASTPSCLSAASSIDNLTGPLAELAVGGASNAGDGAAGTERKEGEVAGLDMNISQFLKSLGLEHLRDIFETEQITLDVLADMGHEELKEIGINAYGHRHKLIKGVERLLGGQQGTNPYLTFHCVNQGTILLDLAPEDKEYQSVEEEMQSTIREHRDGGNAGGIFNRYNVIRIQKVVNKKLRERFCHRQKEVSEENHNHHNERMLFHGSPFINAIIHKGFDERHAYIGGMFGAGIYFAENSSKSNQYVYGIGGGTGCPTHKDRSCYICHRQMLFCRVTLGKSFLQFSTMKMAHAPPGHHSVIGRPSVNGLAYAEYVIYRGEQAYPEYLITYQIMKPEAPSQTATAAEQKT
Kind of assay: Inhibition of TNKS1 (unknown origin) at 0.5 uM by colorimetric method.

The subject of the next assay is MCF7. As to the kind of experiment: Growth inhibition of human MCF7 cells incubated for 24 hrs by MTT assay. The conditions noted are these: MCF7, 24 h. It is filed as functional, cell-based. On the technique in general: Formazan colour is commonly taken as a measure of viable cells.
Assay [2] has as its target T2, Poly [ADP-ribose] polymerase tankyrase-1 (Homo sapiens, UniProt O95271).
T2 sequence (O95271 whole entry): T1 sequence (whole entry)
Description: Inhibition of human TNKS1 (1030 to 1317 residues) by fluorescence based activity assay

The target of assay [3] is T2, Poly [ADP-ribose] polymerase tankyrase-1. As to the kind of experiment: Inhibition of TNKS1 (unknown origin).
Assay [4] in a line: Inhibition of Wnt/beta-catenin pathway (unknown origin) expressed in HEK293 cells by Wnt-responsive super-topflash luciferase reporter assay. It is filed as cell-based. The following applies: Homo sapiens.
A further assay has as its system SW480. As to the kind of experiment: Antitumor activity against human SW480 cells xenografted in CB17/SCID mouse assessed as inhibition of tumor growth at 150 to 300 mg/kg after 3 weeks. It is filed as functional. A general note: In xenograft studies the graft and the host belong to different species.

We go through eight compounds from ChEMBL document CHEMBL4270509, “Targeting Wnt-driven cancers: Discovery of novel tankyrase inhibitors” (Eur J Med Chem, 2017).

Regarding `Cc1c(Cl)cccc1NC(CC(=O)c1ccccc1)C(=O)OCC(=O)c1ccc([N+](=O)[O-])cc1` (centres undefined), in assay [1], the inhibition (as a rule, the relative decrease from the control value, in per cent) stood at 60%. In addition, the IC50 (in general, the concentration needed to halve the response being measured) in the assay with MCF7 was 5000 nM.

Consider `CC(C)(C)c1ccc(-c2nc3ccccc3c(=O)[nH]2)cc1`, for which, in assay [2], the IC50 was found to be 5 nM.

In the case of `Cn1c(-c2ccc(Cl)cc2Cl)nc(=O)c2cccnc21`, the IC50 in assay [3] worked out at 11000 nM.

With `O=C(Nc1cccc2cccnc12)c1ccc(C2C(=O)[C@@H]3[C@H](C2=O)[C@@H]2C=C[C@H]3C2)cc1` (some centres undefined), the EC50 (commonly the midpoint of the concentration-response curve) in assay [4] lay in the range of 180 to 2000 nM.

`COc1ccc(-n2c(SCc3nc(-c4ccc(C)cc4)no3)nnc2-c2ccncc2)cc1`: in the assay on SW480, the TGI (in general, the reduction of tumour growth relative to the control group) is on record as 30%.

Consider `Cc1cccc2nc(Cn3c(=O)n(CC4CCC(C(=O)NCc5ccccc5)CC4)c(=O)c4ccccc43)cc(=O)n12` (centres undefined), for which the EC50 in assay [4] lay in the range of 180 to 2000 nM.

For `N#Cc1ccccc1Cn1c(=O)n(CC2CCC(C(=O)NCc3ccccc3)CC2)c(=O)c2ccccc21` (centres undefined), in assay [4], the EC50 was 180 to 2000 nM.

Regarding `O=C(NC1CCCC1)c1ccc(Cn2c(=O)c3ccccc3n(Cc3cc(=O)n4ccccc4n3)c2=O)cc1`, in assay [4], the EC50 lay within 180 to 2000 nM.
